Data: patent publication US20240373847A1, “HERBICIDAL MALONAMIDES” (BASF SE, priority 2021, published 2024)

Legend:
Assay type in all cases: in vivo
Setaria viridis (SETVI) [1] = experiment: greenhouse test, post-emergence treatment; conditions: 1.000 kg/ha, post-emergence method; scale from 0 to 100
Source text: (§1) The culture containers used were plastic flowerpots containing loamy sand with approximately 3.0% of humus as the substrate. The seeds of the test plants were sown separately for each species.
(§2) For the post-emergence treatment, the test plants were first grown to a height of 3 to 15 cm, depending on the plant habit, and only then treated with the active ingredients which had been suspended or emulsified in water. For this purpose, the test plants were either sown directly and grown in the same containers, or they were first grown separately as seedlings and transplanted into the test containers a few days prior to treatment.
(§3) Depending on the species, the test plants were kept at 10-25° C. or 20-35° C., respectively.
(§4) The test period extended over 2 to 4 weeks. During this time, the test plants were tended, and their response to the individual treatments was evaluated.
(§5) Evaluation was carried out using a scale from 0 to 100. 100 means no emergence of the test plants, or complete destruction of at least the aerial moieties, and 0 means no damage, or normal course of growth. A good herbicidal activity is given at values of 70 to <90 and a very good herbicidal activity is given at values of 90 to 100.
(§6) The test plants used in the greenhouse experiments were of the following species: […]

Setaria viridis (SETVI) [2] = experiment: greenhouse test, pre-emergence treatment; conditions: 0.250 kg/ha, pre-emergence method; scale from 0 to 100
Source text: as §1
(§7) For the pre-emergence treatment, the active ingredients, which had been suspended or emulsified in water, were applied directly after sowing by means of finely distributing nozzles. The containers were irrigated gently to promote germination and growth and subsequently covered with transparent plastic hoods until the test plants had rooted.
(§8) This cover caused uniform germination of the test plants, unless this had been impaired by the active ingredients.
as §3, §4, §5, §6

[3] = tested on: Amaranthus retroflexus (AMARE); experiment: greenhouse test, pre-emergence treatment; conditions: pre-emergence method, scale from 0 to 100
Source text: as §1, §7, §8, §3, §4, §5, §6

[4] = tested on: Echinocloa crus-galli (ECHCG); experiment: greenhouse test, pre-emergence treatment; conditions: 0.125 kg/ha, pre-emergence method; scale from 0 to 100
Source text: as §1, §7, §8, §3, §4, §5, §6

[5] = tested on: Apera spica-venti (APESV); experiment: greenhouse test, pre-emergence treatment; conditions: 0.125 kg/ha, pre-emergence method; scale from 0 to 100
Source text: as §1, §7, §8, §3, §4, §5, §6

[6] = tested on: Digitaria sanguinalis (DIGSA); experiment: greenhouse test, pre-emergence treatment; conditions: 1.000 kg/ha, pre-emergence method; scale from 0 to 100
Source text: as §1, §7, §8, §3, §4, §5, §6

[7] = tested on: Lolium multiflorum (LOLMU); experiment: greenhouse test, pre-emergence treatment; conditions: 1.000 kg/ha, pre-emergence method; scale from 0 to 100
Source text: as §1, §7, §8, §3, §4, §5, §6

[8] = tested on: Abutilon theophrasti (ABUTH); experiment: greenhouse test, pre-emergence treatment; conditions: 0.125 kg/ha, pre-emergence method; scale from 0 to 100
Source text: as §1, §7, §8, §3, §4, §5, §6

Setaria faberi (SETFA) = experiment: greenhouse test, pre-emergence treatment; conditions: 0.125 kg/ha, pre-emergence method; scale from 0 to 100
Source text: as §1, §7, §8, §3, §4, §5, §6

[9] = tested on: Echinocloa crus-galli (ECHCG); experiment: greenhouse test, post-emergence treatment; conditions: 0.500 kg/ha, post-emergence method; scale from 0 to 100
Source text: as §1, §2, §3, §4, §5, §6

[10] = tested on: Amaranthus retroflexus (AMARE); experiment: greenhouse test, post-emergence treatment; conditions: 1.000 kg/ha, post-emergence method; scale from 0 to 100
Source text: as §1, §2, §3, §4, §5, §6

## CCC(C(=O)Nc1cc(C)cc(F)c1)C(=O)NC(C)CCC(=O)O (stereo not shown) [I.136]
Setaria viridis (SETVI) [1]
  herbicidal activity against SETVI: good herbicidal activity (A good herbicidal activity is given at values of 70 to <90)

## COC(=O)C1C=CC(NC(=O)C(C)C(=O)Nc2cc(F)cc(F)c2)C1 (mixture of isomers) [I.153]
Setaria viridis (SETVI) [2]
  herbicidal activity against SETVI: very good herbicidal activity (a very good herbicidal activity is given at values of 90 to 100)

## CCS(=O)(=O)NC(=O)CC(C)NC(=O)C(C)C(=O)Nc1cc(C)cc(F)c1 (stereo not shown) [I.14]
[3]; 0.125 kg/ha
  herbicidal activity against AMARE: very good herbicidal activity (a very good herbicidal activity is given at values of 90 to 100)
[4]
  herbicidal activity against ECHCG: good herbicidal activity (A good herbicidal activity is given at values of 70 to <90)

## COC(=O)CC(C)NC(=O)C(C)C(=O)Nc1cc(Cl)cc(Cl)c1 (stereo not shown) [I.1]
[3]; 0.500 kg/ha
  herbicidal activity against AMARE: good herbicidal activity (A good herbicidal activity is given at values of 70 to <90)

## CCC(C(=O)Nc1cccc(OC(F)(F)F)c1)C(=O)NC(C)CCC(=O)O (stereo not shown) [I.128]
[3]; 1.000 kg/ha
  herbicidal activity against AMARE: very good herbicidal activity (a very good herbicidal activity is given at values of 90 to 100)

## CCc1cccc(NC(=O)C(CC)C(=O)NC(C)CCC(=O)OC)c1 (stereo not shown) [I.117]
[5]
  herbicidal activity against APESV: very good herbicidal activity (a very good herbicidal activity is given at values of 90 to 100)

## CCC(C(=O)Nc1cccc(F)c1)C(=O)N[C@H]1C=C[C@@H](C(=O)O)C1 (stereo partly shown) [I.138]
[6]
  herbicidal activity against DIGSA: good herbicidal activity (A good herbicidal activity is given at values of 70 to <90)
[7]
  herbicidal activity against LOLMU: good herbicidal activity (A good herbicidal activity is given at values of 70 to <90)

## CONC(=O)CC(C)NC(=O)C(C)C(=O)Nc1cc(F)cc(F)c1 (stereo not shown) [I.79]
[8]
  herbicidal activity against ABUTH: good herbicidal activity (A good herbicidal activity is given at values of 70 to <90)

## CCC(C(=O)Nc1cc(Cl)cc(Cl)c1)C(=O)N[C@H]1C=C[C@@H](C(=O)OC)C1 (stereo partly drawn) [I.90, methyl (1S,4R)-4-[2-[(3,5-dichlorophenyl)carbamoyl]butanoylamino]cyclopent-2-ene-1-carboxylate]
Setaria faberi (SETFA)
  herbicidal activity against SETFA: good herbicidal activity (A good herbicidal activity is given at values of 70 to <90)

## COC(=O)CC(C)NC(=O)C(C(=O)Nc1cc(Cl)cc(Cl)c1)C1CC1 (stereo not shown) [I.3]
[9]
  herbicidal activity against ECHCG: good herbicidal activity (A good herbicidal activity is given at values of 70 to <90)

## CCC(C(=O)Nc1cc(F)cc(F)c1)C(=O)NC(C)CC(=O)O (stereo not shown) [I.144]
[10]
  herbicidal activity against AMARE: good herbicidal activity (A good herbicidal activity is given at values of 70 to <90)
